Source: PubChem BioAssay AID330 (DTP/NCI, 2004)
“And” between values parts separate entries of the source, which are not always exact repeats. Equal values may be shown once. Toxic doses and inconclusive results are not listed. How the source made its calls: active means survival T/C of 150% or more; inactive means T/C below 125% in these data. Peptide text beside a SMILES is read from it.

System: P388 leukemia ip, CD2F1 mice, survival T/C
Assay: NCI In Vivo Anticancer Drug Screen. Data for tumor model P388 Leukemia (intraperitoneal) in CD2F1 (CDF1) mice
Conditions: endpoint: median survival time, higher = longer survival
Summary of the method: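 Mice carrying the transplanted tumor received test compound or vehicle. Survival was recorded in each group, and the value is the treated-group measurement divided by that of the vehicle-treated control group.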

[1] = dose: 50.0 mg/kg/injection, schedule: Q01DX009 (ip), vehicle: saline with Tween-80
[2] = dose: 100.0 mg/kg/injection, schedule: Q01DX009 (ip), vehicle: saline with Tween-80
[3] = dose: 200.0 mg/kg/injection, schedule: Q01DX009 (ip), vehicle: saline with Tween-80
[4] = dose: 50.0 mg/kg/injection, schedule: Q01DX005 (ip), vehicle: saline with Tween-80
[5] = dose: 100.0 mg/kg/injection, schedule: Q01DX005 (ip), vehicle: saline with Tween-80
[6] = dose: 200.0 mg/kg/injection, schedule: Q01DX005 (ip), vehicle: saline with Tween-80
[7] = dose: 50.0 mg/kg/injection, schedule: Q01DX005 (ip), vehicle: Klucel (hydroxypropylcellulose) (HPC)
[8] = dose: 100.0 mg/kg/injection, schedule: Q01DX005 (ip), vehicle: Klucel (hydroxypropylcellulose) (HPC)
[9] = dose: 200.0 mg/kg/injection, schedule: Q01DX005 (ip), vehicle: Klucel (hydroxypropylcellulose) (HPC)
[10] = dose: 100.0 mg/kg/injection, schedule: Q04DX002 (ip), vehicle: saline with Tween-80
[11] = dose: 50.0 mg/kg/injection, schedule: Q01DX009 (ip), vehicle: saline
[12] = dose: 100.0 mg/kg/injection, schedule: Q01DX009 (ip), vehicle: saline
[13] = dose: 200.0 mg/kg/injection, schedule: Q01DX009 (ip), vehicle: saline

Measured: T/C

CCOC(=O)C(=C=[N-])[n+]1ccc(C)cc1
inactive: dose: 6.25 mg/kg/injection, schedule: Q01DX009 (ip), vehicle: saline sonified 90 % of control | dose: 12.5 mg/kg/injection, schedule: Q01DX009 (ip), vehicle: saline sonified 90 % of control | dose: 25.0 mg/kg/injection, schedule: Q01DX009 (ip), vehicle: saline sonified 90 % of control

Oc1ccccc1C=NCCN=Cc1ccccc1O
inactive: [1] 99 % of control | [2] 99 % of control | [3] 101 % of control | dose: 400.0 mg/kg/injection, schedule: Q01DX009 (ip), vehicle: saline with Tween-80 105 % of control

CCCCN1NC1(C)c1ccccc1 (stereo unspecified)
inactive: [4] 108 % of control | [5] 104 % of control | [6] 112 % of control

CN(C)c1ccc(N=Nc2ccc3ccc4cccc5ccc2c3c45)cc1
inactive: [1] 93 % of control | [2] 89 % of control | [3] 102 % of control

CC1(CSc2ccc3ccccc3c2)CC(=O)N1 (stereo unspecified)
inactive: dose: 100.0 mg/kg/injection, schedule: Q01DX001 (ip), vehicle: suspension in saline 99 % of control | dose: 200.0 mg/kg/injection, schedule: Q01DX001 (ip), vehicle: suspension in saline 99 % of control | dose: 400.0 mg/kg/injection, schedule: Q01DX001 (ip), vehicle: suspension in saline 98 % of control

COC(=O)C(O)c1cccc(OC)c1 (stereo unspecified)
inactive: dose: 100.0 mg/kg/injection, schedule: Q04DX003 (ip), vehicle: saline with Tween-80 113 % of control | dose: 200.0 mg/kg/injection, schedule: Q04DX003 (ip), vehicle: saline with Tween-80 100 % of control | dose: 400.0 mg/kg/injection, schedule: Q04DX003 (ip), vehicle: saline with Tween-80 109 % of control

Cn1nnnc1-c1ccc(C(=O)O)cc1
inactive: dose: 25.0 mg/kg/injection, schedule: Q01DX005 (ip), vehicle: Klucel (hydroxypropylcellulose) (HPC) 102 % of control | [7] 102 % of control and 91 % of control | [8] 96 % of control | [9] 93 % of control

O=C(NC(Cc1ccccc1)C(=O)CBr)OCc1ccccc1 (stereo unspecified)
inactive: dose: 12.5 mg/kg/injection, schedule: Q01DX001 (ip), vehicle: saline with Tween-80 100 % of control | dose: 25.0 mg/kg/injection, schedule: Q01DX001 (ip), vehicle: saline with Tween-80 104 % of control | dose: 50.0 mg/kg/injection, schedule: Q01DX001 (ip), vehicle: saline with Tween-80 109 % of control

CCOP(=O)(O)SP(=O)(O)OCC
inactive: dose: 25.0 mg/kg/injection, schedule: Q01DX001 (ip), vehicle: saline 100 % of control | dose: 50.0 mg/kg/injection, schedule: Q01DX001 (ip), vehicle: saline 102 % of control | dose: 100.0 mg/kg/injection, schedule: Q01DX001 (ip), vehicle: saline 102 % of control and 100 % of control | dose: 200.0 mg/kg/injection, schedule: Q01DX001 (ip), vehicle: saline 101 % of control | dose: 400.0 mg/kg/injection, schedule: Q01DX001 (ip), vehicle: saline 101 % of control

CCC(C)C(NC(=O)C(N)CC(C)C)C(=O)O (stereo not drawn) (H-Leu-Ile-OH; configuration not given here)
inactive: dose: 60.0 mg/kg/injection, schedule: Q01DX005 (ip), vehicle: saline 108 % of control | dose: 120.0 mg/kg/injection, schedule: Q01DX005 (ip), vehicle: saline 108 % of control | dose: 240.0 mg/kg/injection, schedule: Q01DX005 (ip), vehicle: saline 104 % of control

C/C(CC(O)(c1ccccc1)c1ccccc1)=N\SC(c1ccccc1)(c1ccccc1)c1ccccc1
inactive: dose: 100.0 mg/kg/injection, schedule: Q01DX001 (ip), vehicle: saline with Tween-80 106 % of control | dose: 200.0 mg/kg/injection, schedule: Q01DX001 (ip), vehicle: saline with Tween-80 100 % of control | dose: 400.0 mg/kg/injection, schedule: Q01DX001 (ip), vehicle: saline with Tween-80 98 % of control

O=C1c2ccccc2C(=O)C1(Br)c1ccc(Cl)cc1
inactive: [10] 96 % of control | dose: 200.0 mg/kg/injection, schedule: Q04DX002 (ip), vehicle: saline with Tween-80 101 % of control | dose: 400.0 mg/kg/injection, schedule: Q04DX002 (ip), vehicle: saline with Tween-80 99 % of control

CCOC(=O)CN1C=CC(=C/C(=N/S(=O)(=O)c2ccc(C)cc2)SC)C=C1
inactive: dose: 25.0 mg/kg/injection, schedule: Q04DX002 (ip), vehicle: saline with Tween-80 100 % of control | dose: 50.0 mg/kg/injection, schedule: Q04DX002 (ip), vehicle: saline with Tween-80 106 % of control | [10] 104 % of control

CC(=O)C[n+]1cccc(S)c1-c1ccccc1
inactive: [4] 97 % of control | [5] 105 % of control | [6] 97 % of control

CC1=NCCN1CCNC(=O)c1ccc(C(=O)NCCN2CCN=C2C)cc1
inactive: dose: 1.88 mg/kg/injection, schedule: Q01DX005 (ip), vehicle: saline with Tween-80 105 % of control | dose: 3.75 mg/kg/injection, schedule: Q01DX005 (ip), vehicle: saline with Tween-80 100 % of control | dose: 7.5 mg/kg/injection, schedule: Q01DX005 (ip), vehicle: saline with Tween-80 100 % of control and 115 % of control

Nc1nc2nc(N=Nc3ccc(S(=O)(=O)O)cc3)[nH]c2c(=O)[nH]1
inactive: [7] 104 % of control | [8] 104 % of control | [9] 104 % of control

O=C1C(=O)c2ccccc2C(O)=C1CCCc1ccc(OCc2ccccc2)cc1
inactive: dose: 5.0 mg/kg/injection, schedule: Q01DX009 (ip), vehicle: saline with Tween-80 107 % of control | dose: 10.0 mg/kg/injection, schedule: Q01DX009 (ip), vehicle: saline with Tween-80 117 % of control | dose: 20.0 mg/kg/injection, schedule: Q01DX009 (ip), vehicle: saline with Tween-80 108 % of control | dose: 40.0 mg/kg/injection, schedule: Q01DX009 (ip), vehicle: saline with Tween-80 105 % of control

O=C(O)C1C2c3ccccc3C(c3ccccc32)C1C(=O)NCC1CC1 (stereo unspecified)
inactive: dose: 60.0 mg/kg/injection, schedule: Q01DX005 (ip), vehicle: Klucel (hydroxypropylcellulose) (HPC) 109 % of control | dose: 120.0 mg/kg/injection, schedule: Q01DX005 (ip), vehicle: Klucel (hydroxypropylcellulose) (HPC) 110 % of control

CN(C)C1=NN(Cc2ccccc2)C(=O)C1
inactive: [11] 105 % of control | [12] 103 % of control | [13] 96 % of control

NC(=O)C(=O)NNc1cccc(Cl)n1
inactive: dose: 50.0 mg/kg/injection, schedule: Q01DX001 (ip), vehicle: Klucel (hydroxypropylcellulose) (HPC) 96 % of control | dose: 100.0 mg/kg/injection, schedule: Q01DX001 (ip), vehicle: Klucel (hydroxypropylcellulose) (HPC) 98 % of control | dose: 200.0 mg/kg/injection, schedule: Q01DX001 (ip), vehicle: Klucel (hydroxypropylcellulose) (HPC) 103 % of control

Cc1cc(NC(=S)SCc2ccc(Cl)cc2)c([N+](=O)[O-])cc1C
inactive: [11] 92 % of control | dose: 50.0 mg/kg/injection, schedule: Q01DX009 (ip), vehicle: suspension in saline 108 % of control | [12] 97 % of control | [13] 92 % of control | dose: 200.0 mg/kg/injection, schedule: Q01DX009 (ip), vehicle: suspension in saline 98 % of control

CCCCCCC(=O)/C=C/c1ccc(OCc2ccccc2)c(OCc2ccccc2)c1
inactive: dose: 6.25 mg/kg/injection, schedule: Q01DX005 (ip), vehicle: saline with Tween-80 92 % of control | dose: 12.5 mg/kg/injection, schedule: Q01DX005 (ip), vehicle: saline with Tween-80 92 % of control
